Columns and labels:
[1] = 101 kPa, Liquid, Vibrating tube method
[2] = xn = mol fraction of the nth substance listed; details: 101 kPa, Liquid, Vibrating tube method

OCCO [1,2-ethanediol]
[1]
Details | mass density [kg/m3]
278.15 K | 1123.8
323.15 K | 1092.14

OCCO [1,2-ethanediol] + O
mass density [kg/m3], [2]
Details | 278.15 K | 288.15 K | 298.15 K | 308.15 K | 323.15 K
x1 = 0.02277 | 1010.24 | 1008.82 | 1006.33 | 1002.99 | 996.6
x1 = 0.05488 | 1023.85 | 1021.56 | 1018.45 | 1014.58 | 1007.61
x1 = 0.07829 | 1032.87 | 1030.01 | 1026.44 | 1022.21 | 1014.78
x1 = 0.1012 | 1040.89 | 1037.48 | 1033.52 | 1028.99 | 1021.16
x1 = 0.158 | 1057.7 | 1053.26 | 1048.42 | 1043.17 | 1034.52
x1 = 0.2 | 1067.88 | 1062.86 | 1057.55 | 1051.92 | 1042.75
x1 = 0.299 | 1085.43 | 1079.59 | 1073.54 | 1067.25 | 1057.39
x1 = 0.3917 | 1096.56 | 1090.28 | 1083.85 | 1077.24 | 1067.02
x1 = 0.5006 | 1105.57 | 1098.99 | 1092.32 | 1085.51 | 1075.02
x1 = 0.6041 | 1111.55 | 1104.81 | 1098 | 1091.09 | 1080.49
x1 = 0.7063 | 1115.93 | 1109.12 | 1102.24 | 1095.28 | 1084.61
x1 = 0.8049 | 1119.14 | 1112.26 | 1105.34 | 1098.34 | 1087.65
x1 = 0.9034 | 1121.73 | 1114.79 | 1107.84 | 1100.82 | 1090.14
x1 = 0.9535 | 1122.81 | 1115.88 | 1108.92 | 1101.89 | 1091.19
x1 = 0.9826 | 1123.42 | 1116.49 | – | 1102.48 | 1091.78
x1 = 1 | 1123.8 | – | – | – | 1092.14

O [water] + OCCO
[2], x2 = 0
Details | mass density [kg/m3]
278.15 K | 999.96
323.15 K | 988.03

From the NIST ThermoML archive (doi:10.1016/j.fluid.2013.01.025)
